Assay results from ChEMBL document CHEMBL1131394, “Design and synthesis of N-alkylated saccharins as selective alpha-1a adrenergic receptor antagonists” (Bioorg Med Chem Lett, 1998).

How the values were obtained:
[1] = biological target: T1, Alpha-1D adrenergic receptor (Homo sapiens, UniProt P25100); assay: Ability to displace beta ([125I]-iodo-4-hydroxyphenyl) ethylamino methyl tetralone from human cloned Alpha-1d adrenergic receptor stably expressed in HEK cells.; assay type: cell-based, HEK293
T1 sequence (P25100 whole entry): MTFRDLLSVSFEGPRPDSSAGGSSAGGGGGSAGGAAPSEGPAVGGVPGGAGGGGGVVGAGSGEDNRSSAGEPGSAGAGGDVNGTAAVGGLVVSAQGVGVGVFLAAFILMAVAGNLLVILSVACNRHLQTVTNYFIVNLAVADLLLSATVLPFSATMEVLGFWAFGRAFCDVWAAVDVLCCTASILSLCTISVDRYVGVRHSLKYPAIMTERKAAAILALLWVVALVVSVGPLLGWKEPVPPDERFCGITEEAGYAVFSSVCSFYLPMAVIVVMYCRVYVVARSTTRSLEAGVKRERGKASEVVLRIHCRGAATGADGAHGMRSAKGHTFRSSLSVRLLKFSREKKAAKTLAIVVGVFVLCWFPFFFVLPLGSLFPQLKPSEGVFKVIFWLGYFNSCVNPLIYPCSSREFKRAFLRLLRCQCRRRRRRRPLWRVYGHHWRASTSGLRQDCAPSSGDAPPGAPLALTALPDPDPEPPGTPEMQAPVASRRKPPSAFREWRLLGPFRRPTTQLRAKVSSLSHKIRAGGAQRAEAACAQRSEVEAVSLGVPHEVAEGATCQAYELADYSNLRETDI

[2] = biological target: T2, Alpha-1B adrenergic receptor (Homo sapiens, UniProt P35368); assay: Ability to displace beta ([125I]-iodo-4-hydroxyphenyl)-ethylamino methyl tetralone from human cloned Alpha-1b adrenergic receptor stably expressed in LM cells.; assay type: cell-based
T2 sequence (P35368 whole entry): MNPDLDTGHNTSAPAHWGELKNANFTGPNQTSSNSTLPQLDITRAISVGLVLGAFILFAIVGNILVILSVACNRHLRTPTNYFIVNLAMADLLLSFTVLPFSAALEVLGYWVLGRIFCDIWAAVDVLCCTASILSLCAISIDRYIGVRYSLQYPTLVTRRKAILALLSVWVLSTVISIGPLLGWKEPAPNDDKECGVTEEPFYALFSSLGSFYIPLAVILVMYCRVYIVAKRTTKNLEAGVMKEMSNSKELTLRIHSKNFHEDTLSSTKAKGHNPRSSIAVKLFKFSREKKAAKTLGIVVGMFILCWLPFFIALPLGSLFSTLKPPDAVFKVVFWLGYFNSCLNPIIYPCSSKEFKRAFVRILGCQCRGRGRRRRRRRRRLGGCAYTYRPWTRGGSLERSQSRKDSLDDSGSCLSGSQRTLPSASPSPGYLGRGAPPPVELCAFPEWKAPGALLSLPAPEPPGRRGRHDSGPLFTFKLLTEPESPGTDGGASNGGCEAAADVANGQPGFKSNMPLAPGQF

[3] = biological target: T3, Alpha-1A adrenergic receptor (Homo sapiens, UniProt P35348); assay: Ability to displace beta ([125I]-iodo-4-hydroxyphenyl)-ethylamino methyl tetralone from human cloned Alpha-1a adrenergic receptor stably expressed in Chinese Hamster Ovary (CHO) cells; assay type: cell-based
T3 sequence (P35348 whole entry): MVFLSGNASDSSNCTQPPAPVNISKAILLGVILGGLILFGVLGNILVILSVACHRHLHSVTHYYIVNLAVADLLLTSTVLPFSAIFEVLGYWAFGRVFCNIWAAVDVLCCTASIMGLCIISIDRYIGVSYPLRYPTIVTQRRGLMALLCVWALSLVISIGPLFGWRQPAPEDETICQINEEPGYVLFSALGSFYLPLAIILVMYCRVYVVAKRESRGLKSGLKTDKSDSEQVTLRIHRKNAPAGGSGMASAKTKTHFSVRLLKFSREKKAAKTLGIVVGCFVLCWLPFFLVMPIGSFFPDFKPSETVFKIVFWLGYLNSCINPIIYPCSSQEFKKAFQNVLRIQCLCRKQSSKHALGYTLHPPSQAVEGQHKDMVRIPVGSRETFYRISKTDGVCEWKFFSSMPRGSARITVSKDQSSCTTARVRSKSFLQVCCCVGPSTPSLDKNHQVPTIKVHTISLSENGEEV

[4] = biological target: T3, Alpha-1A adrenergic receptor; assay: Ability to displace beta ([125I]-iodo-4-hydroxyphenyl)-ethylaminomethyl tetralone from human cloned Alpha-1a adrenergic receptor stably expressed in CHO cells; assay type: cell-based
[5] = biological target: T4, Adrenergic receptors; alpha-1 A & B (Homo sapiens) (UniProt P35348+P35368); assay: Selectivity towards alpha-1a over alpha-1b receptor; 97x; assay type: protein assay
[6] = biological target: T5, Alpha adrenergic receptor (1a and 1d) (Homo sapiens) (UniProt P35348+P25100); assay: Selectivity towards Alpha-1A over alpha1d receptor; 208x; assay type: protein assay
Canis familiaris [7] = assay: In vivo inhibitory activity against […]-induced increase in urethral pressure (IUP) in dog; assay type: functional, Canis lupus familiaris, Urethra
Canis familiaris [8] = assay: In vivo inhibitory activity against […]-induced increase in diastolic blood pressure (DBP) in dog; assay type: functional, Canis lupus familiaris, Artery
[9] = biological target: T4, Adrenergic receptors; alpha-1 A & B (Homo sapiens); assay: Selectivity towards Alpha-1A over alpha-1b receptor; 11x; assay type: protein assay
[10] = biological target: T5, Alpha adrenergic receptor (1a and 1d) (Homo sapiens); assay: Selectivity towards Alpha-1A over alpha-1d receptor; 56x; assay type: protein assay
[11] = biological target: T2, Alpha-1B adrenergic receptor; assay: Ability to displace beta ([125I]-iodo-4-hydroxyphenyl)-ethylamino methyl tetralone from human cloned Alpha-1b adrenergic receptor stably expressed in COS-7 cells; assay type: cell-based
[12] = biological target: T1, Alpha-1D adrenergic receptor; assay: Ability to displace beta ([125I]-iodo-4-hydroxyphenyl)-ethylamino methyl tetralone from human cloned Alpha-1d adrenergic receptor stably expressed in COS-7 cells; assay type: cell-based
[13] = biological target: T3, Alpha-1A adrenergic receptor; assay: Ability to displace beta ([125I]-iodo-4-hydroxyphenyl)-ethylaminomethyl tetralone from human cloned Alpha-1a adrenergic receptor stably expressed in COS-7 cells; assay type: cell-based
[14] = biological target: T4, Adrenergic receptors; alpha-1 A & B (Homo sapiens); assay: Selectivity towards Alpha-1A over alpha-1b receptor; 5x; assay type: protein assay
[15] = biological target: T5, Alpha adrenergic receptor (1a and 1d) (Homo sapiens); assay: Selectivity towards Alpha-1A over alpha1d receptor; 11x; assay type: protein assay
[16] = biological target: T5, Alpha adrenergic receptor (1a and 1d) (Homo sapiens); assay: Selectivity towards alpha-1a over alpha1d receptor; 5.5x; assay type: protein assay
[17] = biological target: T4, Adrenergic receptors; alpha-1 A & B (Homo sapiens); assay: Selectivity towards Alpha-1A over alpha-1b receptor; 3.3x; assay type: protein assay
[18] = biological target: T3, Alpha-1A adrenergic receptor; assay: Ability to displace beta ([125I]-iodo-4-hydroxyphenyl)-ethylaminomethyl tetralone from human cloned Alpha-1a adrenergic receptor stably expressed in Chinese Hamster Ovary (CHO) cells; assay type: cell-based
[19] = biological target: T3, Alpha-1A adrenergic receptor; assay: Ability to displace beta ([125I]-iodo-4-hydroxyphenyl)-ethylaminomethyl tetralone from human cloned Alpha-1a adrenergic receptor stably expressed in CHO cells
[20] = biological target: T4, Adrenergic receptors; alpha-1 A & B (Homo sapiens); assay: Selectivity towards Alpha-1A over alpha-1b receptor; 188x; assay type: protein assay
[21] = biological target: T5, Alpha adrenergic receptor (1a and 1d) (Homo sapiens); assay: Selectivity towards Alpha-1A over alpha-1d receptor; 266x; assay type: protein assay

| Compound | Ki [1] [nM] | Ki [2] [nM] | Ki [3] [nM] | also measured |
| --- | --- | --- | --- | --- |
| O=C1c2ccccc2S(=O)(=O)N1CCCCN1CCC(n2c(=O)oc3cc(F)ccc32)CC1 | 25 | 7.3 | 0.084 | – |
| O=C1c2ccccc2S(=O)(=O)N1CCCCN1CCC(n2c(=O)oc3ccccc32)CC1 | 41 | 14 | 0.12 | – |
| Cc1ccc2oc(=O)n(C3CCN(CCCCN4C(=O)c5ccccc5S4(=O)=O)CC3)c2c1 | 136 | 37 | 1.2 | – |
| CSc1ccc2c(c1)C(=O)N(CCCCN1CCC(n3c(=O)oc4ccccc43)CC1)S2(=O)=O | 59 | 10 | – | Ki [4]: 0.057 nM |
| O=C1c2ccccc2S(=O)(=O)N1CCCCN1CCC(n2c(=O)oc3cc4c(cc32)CCCC4)CC1 | 894 | 676 | 90 | – |
| Cc1cccc2oc(=O)n(C3CCN(CCCCN4C(=O)c5ccccc5S4(=O)=O)CC3)c12 | 1020 | 1150 | 147 | – |
| Cc1ccc2c(c1)oc(=O)n2C1CCN(CCCCN2C(=O)c3ccccc3S2(=O)=O)CC1 | 644 | 301 | 3.1 | Selectivity [5]: 97; Selectivity [6]: 208 |
| O=C1c2cc([N+](=O)[O-])ccc2S(=O)(=O)N1CCCCN1CCC(n2c(=O)oc3ccccc32)CC1 | 351 | 133 | 0.13 | – |
| O=C1c2cc(Cl)ccc2S(=O)(=O)N1CCCCN1CCC(n2c(=O)oc3ccccc32)CC1 | 85 | – | – | Kb (Canis familiaris [7]): 5.5 µg/kg; Kb (Canis familiaris [8]): 156 µg/kg |
| COc1cc2nc(N3CCN(C(=O)C4CCCO4)CC3)nc(N)c2cc1OC (stereo unspecified) [TERAZOSIN] | – | – | – | Kb (Canis familiaris [7]): 16 µg/kg; Kb (Canis familiaris [8]): 17 µg/kg |
| COC(=O)c1ccc2c(c1)oc(=O)n2C1CCN(CCCCN2C(=O)c3ccccc3S2(=O)=O)CC1 | 3430 | 1960 | 1030 | – |
| O=C1c2ccccc2C(=O)N1CCCCN1CCC(n2c(O)nc3ccccc32)CC1 | – | – | – | Selectivity [9]: 11; Selectivity [10]: 56 |
| CS(=O)(=O)c1ccc2c(c1)S(=O)(=O)N(CCCCN1CCC(n3c(=O)oc4ccccc43)CC1)C2=O | – | – | – | Ki [11]: 6.8 nM; Ki [12]: 210 nM; Ki [13]: 2.4 nM |
| Cc1cc(C)c2oc(=O)n(C3CCN(CCCCN4C(=O)c5ccccc5S4(=O)=O)CC3)c2c1 | 224 | 108 | 20 | Selectivity [14]: 5; Selectivity [15]: 11 |
| COc1ccc2c(c1)oc(=O)n2C1CCN(CCCCN2C(=O)c3ccccc3S2(=O)=O)CC1 | 2750 | 1650 | 499 | Selectivity [16]: 5.5; Selectivity [17]: 3.3 |
| Cc1ccc2c(c1)C(=O)N(CCCCN1CCC(n3c(=O)oc4ccccc43)CC1)S2(=O)=O | 73 | 20 | – | Ki [18]: 0.099 nM |
| COc1ccc2c(c1)C(=O)N(CCCCN1CCC(n3c(=O)oc4ccccc43)CC1)S2(=O)=O | 76 | 15 | – | Ki [18]: 0.064 nM |
| O=C1c2ccccc2C(=O)N1CCCCN1CCC(n2c(=O)[nH]c3ccccc32)CC1 | 16 | 3 | 0.28 | – |
| O=C1c2cc(F)ccc2S(=O)(=O)N1CCCCN1CCC(n2c(=O)oc3ccccc32)CC1 | 71 | 50 | – | Ki [19]: 0.27 nM; Selectivity [20]: 188; Selectivity [21]: 266 |
| O=C1c2ccc([N+](=O)[O-])cc2S(=O)(=O)N1CCCCN1CCC(n2c(=O)oc3ccccc32)CC1 | 75 | 75 | – | Ki [4]: 0.16 nM |
